Measured values reported in US20150335610A1, “PDK4 INHIBITOR AND USE THEREOF” (priority 2012, published 2015).

What was measured:
[1] = background art, Non-Patent Literature 4; cited from earlier work
[2] = system: pyruvate dehydrogenase (PDH); format: in vivo, mouse; conditions: KIS7 2.8 mg/kg/day, DCA 56 mg/kg/day i.p., FIG. 10
normal cells = assay: Anchorage-independent growth of normal cells; format: cell-based; conditions: even at the order of several tens of μM
PDK4 = PDK4 (Homo sapiens, UniProt Q16654); assay: PDK4-inhibitory activity by off-chip mobility shift assay (phosphorylation of PDH E1 subunit); format: biochemical; conditions: for IC50: phosphorylation of E1 subunit of PDH, 100 μM ATP, human recombinant PDK
PDK4, sequence (Q16654 whole entry): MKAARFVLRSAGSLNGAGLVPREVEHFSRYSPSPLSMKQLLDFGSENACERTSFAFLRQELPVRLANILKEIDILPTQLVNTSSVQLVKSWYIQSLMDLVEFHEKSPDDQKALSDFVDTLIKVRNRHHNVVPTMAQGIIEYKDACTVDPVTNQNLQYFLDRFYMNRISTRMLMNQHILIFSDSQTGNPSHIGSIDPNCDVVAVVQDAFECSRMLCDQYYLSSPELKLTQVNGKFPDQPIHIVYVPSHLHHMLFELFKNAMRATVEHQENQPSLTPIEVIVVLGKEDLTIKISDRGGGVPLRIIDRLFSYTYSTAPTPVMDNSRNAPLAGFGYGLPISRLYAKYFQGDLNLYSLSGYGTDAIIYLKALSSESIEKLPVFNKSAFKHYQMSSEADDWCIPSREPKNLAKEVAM
Description: The PDK2 and PDK4-inhibitory activities were determined by measuring the phosphorylation of the E1 subunit of PDH in the presence of 100 μM ATP.
1) 5 μL of 4-fold concentrated solutions of test substances, 5 μL of 4-fold concentrated solutions of substrates (recombinant human PDH)/ATP/metal, and 10 μL of 2-fold concentrated solutions of human recombinant PDK were prepared with an assay buffer (20 mM HEPES, 0.01% Triton X-100, 2 mM DTT, pH 7.5) and then were mixed in the wells of a polypropylene 384-well plate, followed by reactions for five hours at room temperature.
2) Reactions were terminated by adding 60 μL of Termination Buffer (QuickScout Screening Assist MSA; Carna Biosciences, Inc.).
3) Peptide substrates and phosphorylated peptides in the reaction solutions were separated by LabChip3000 system (Caliper Life Science) and quantified (gel shift assay). The phosphorylation activity was assessed by product ratios (P/(P+S)) calculated from the peptide substrate peak height (S) and the phosphorylated peptide peak height (P).
4) The inhibitory percentage was calculated as follows.

cells cancerated by Ras = assay: Anchorage-independent sphere growth of cells cancerated by Ras; format: cell-based; conditions: at μM to 10 μM order
HeLaS3 cells = assay: Soft agar colony formation assay of cancer cells HeLaS3; format: cell-based; conditions: at 3 μM; eight days of culture; FIG. 14
Description: A conventional method was employed for a soft agar colony formation assay of cancer cells HeLaS3 (C. Oneyama et. al. Genes to Cells 2008; 13: 1 to 129). The HeLaS3 cells (4×10^4) were mixed with 3 ml of soft agar medium (Dulbecco modified Eagle's medium, 10% calf serum, 0.36% agar) and poured into a well of 6 cm-cell culture plate, which was added 5 ml of the base agar medium (Dulbecco modified Eagle's medium, 10% calf serum, 0.7% agar) in advance. After eight days of culture in a carbon dioxide gas incubator at 37° C., colonies were stained with MTT (3-(4,5-dimethylthiazol-2-yl)-2,5-diphenyltetrazolium bromide).

SMILES | side effects [1] | PDH enzyme activity in liver tissue [2] | anchorage-independent growth of normal cells (normal cells) | dose inhibiting PDK4 compared with DCA and Radicicol (PDK4; FIG. 4) | effect on PDK4 activity (activation or inhibition) (PDK4; comparison with known PDK inhibitory substances, FIG. 4) | IC50 (PDK4) [µM] | anchorage-independent sphere growth of cells cancerated by Ras (cells cancerated by Ras) | colony formation of HeLaS3 in soft agar (HeLaS3 cells)
O=C(O)C(Cl)Cl [DCA, dichloroacetic acid, reference compound] | severe side effects such as neurotoxicity | equivalent PDH activities to non-infected mice | – | – | – | – | – | –
Cc1cc2c(C(C)C)c(O)c(O)c(C=O)c2c(O)c1-c1c(C)cc2c(C(C)C)c(O)c(O)c(C=O)c2c1O [KIS7, gossypol] | – | equivalent PDH activities to non-infected mice | did not inhibit | far lower dose as compared with DCA and Radicicol | inhibited PDK4 | 4 | suppressed the anchorage-independent sphere growth | inhibited the colony formation
CC1(C)CCC2=C(O1)c1ccccc1C(=O)C2=O [KIS24, β-lapachone] | – | – | – | – | – | 3 | suppressed the anchorage-independent sphere growth | inhibited the colony formation
Cc1cc2c(C(C)C)c(O)c(O)c(/C=N/c3ccccc3C(=O)O)c2c(O)c1-c1c(C)cc2c(C(C)C)c(O)c(O)c(/C=N/c3ccccc3C(=O)O)c2c1O [KIS28] | – | – | – | – | – | 13.2 | – | –
C[C@H]1COC2=C1C(=O)C(=O)c1c2ccc2c1CCCC2(C)C [KIS37, cryptotanshinone] | – | – | did not inhibit | – | – | 11 | suppressed the anchorage-independent sphere growth | inhibited the colony formation
Cc1cccc2c3c(ccc12)C1=C(C(=O)C3=O)[C@@H](C)CO1 [KIS116, dihydrotanshinone I] | – | – | did not inhibit | – | – | < 4 | suppressed the anchorage-independent sphere growth | –
